Test results published in US11033539B2, “Compounds of formulas (VII), (VIII), (IX), (XI), (XII), (XIII), and (XIV) as muscarinic receptor 4(M4) antagonists for treating neurological diseases” (Neurocrine Biosciences, Inc., priority 2015, dated 2021).

target: human M4 receptor (Homo sapiens (Human), UniProt P08173); assay: Radioligand (tritiated N-methylscopolamine) binding assay, M4; conditions: Ki against the M4 receptor; membranes from CHO cells expressing human M4; tritiated N-methylscopolamine 1.5 nM; read-out: Ki
Sequence (P08173 whole entry): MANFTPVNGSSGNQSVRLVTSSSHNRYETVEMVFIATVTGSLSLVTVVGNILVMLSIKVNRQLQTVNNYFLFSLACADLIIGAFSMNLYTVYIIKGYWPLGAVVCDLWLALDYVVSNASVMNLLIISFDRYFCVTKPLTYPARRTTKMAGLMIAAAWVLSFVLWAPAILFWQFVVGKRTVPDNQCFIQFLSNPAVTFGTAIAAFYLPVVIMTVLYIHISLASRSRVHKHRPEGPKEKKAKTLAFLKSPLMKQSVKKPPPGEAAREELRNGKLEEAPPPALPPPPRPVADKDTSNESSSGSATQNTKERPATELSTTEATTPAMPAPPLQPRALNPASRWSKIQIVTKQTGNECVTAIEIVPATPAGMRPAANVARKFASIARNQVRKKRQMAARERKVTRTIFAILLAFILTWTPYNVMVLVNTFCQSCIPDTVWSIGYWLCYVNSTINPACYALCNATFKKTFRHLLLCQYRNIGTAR
Method in brief: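 Membranes came from recombinant CHO cells expressing human muscarinic subtypes and were incubated with compound and [3H]NMS (1.5 nM) in HEPES/NaCl/MgCl2/EDTA buffer, pH 7.4, at 37° C for 90 min. Twelve-point dose-response (printed 10–[…]). Filter-bound radioactivity was counted and Ki values derived.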

Ki | SMILES
0.01 to 0.1 µM | Cc1nc(-c2ccc(C(F)(F)F)cc2)sc1C(=O)NCCC1CCN(Cc2ccccc2)CC1 [9-32, N-[2-(1-benzylpiperidin-4-yl)ethyl]-4-methyl-2-[4-(trifluoromethyl)phenyl]-1,3-thiazole-5-carboxamide]
0.1 to 1 µM | O=C(Cc1ccc(OCc2ccccc2)cc1)NCCC1CCN(Cc2ccccc2)CC1 [9-43, 2-[4-(benzyloxy)phenyl]-N-[2-(1-benzylpiperidin-4-yl)ethyl]acetamide]
0.01 to 0.1 µM | O=C(NCCC1CCN(Cc2ccccc2)CC1)C1CCN(c2ccc(OC(F)(F)F)nc2)CC1 [10-34, N-[2-(1-benzylpiperidin-4-yl)ethyl]-1-[6-(trifluoromethoxy)pyridin-3-yl]piperidine-4-carboxamide]
0.1 to 1 µM | N#Cc1ccc(N2CCC(C(=O)NCCC3CCN(Cc4ccccc4O)CC3)CC2)nc1 [11-25, 1-(5-cyanopyridin-2-yl)-N-(2-{1-[(2-hydroxyphenyl)methyl]piperidin-4-yl}ethyl)piperidine-4-carboxamide]
0.1 to 1 µM | C=CCNC(=O)c1cnc(N2C[C@@H](C)N(C(=O)NCCC3CCN(Cc4ccccc4)CC3)[C@@H](C)C2)nc1 [27-4]
0.01 to 0.1 µM | Cc1c(C(=O)NCCC2CCN(Cc3ccccc3)CC2)cnc2cc(-c3cccc(F)c3F)nn12 [18-7]
0.01 to 0.1 µM | C[C@@H]1CN(c2cc(F)cc(C#N)c2)CCN1C(=O)NC[C@H](O)C1CCN(Cc2ccccc2)CC1 [7-4, (2R)-N-[(2R)-2-(1-benzylpiperidin-4-yl)-2-hydroxyethyl]-4-(3-cyano-5-fluorophenyl)-2-methylpiperazine-1-carboxamide]
0.01 to 0.1 µM | O=C(NCCC1CCN(Cc2ccccc2O)CC1)c1ccc(OCc2ccccc2)cc1 [11-3, 4-(benzyloxy)-N-(2-{1-[(2-hydroxyphenyl)methyl]piperidin-4-yl}ethyl)benzamide]
0.1 to 1 µM | CNC(=O)c1cnc(N2CCN(C(=O)NCCC3CCN(Cc4ccccc4)CC3)[C@H](C)C2)nc1 [27-10]
0.1 to 1 µM | C[C@@H]1CN(c2ncc(C#N)cn2)C[C@H](C)N1C(=O)NCCC1CCN(Cc2ccc(B(O)O)cc2)CC1 [6-63, (4-{[4-(2-{[(2R,6S)-4-(5-cyanopyrimidin-2-yl)-2,6-dimethyl-piperazine-1-carbonyl]amino}ethyl)piperidin-1-yl]methyl}phenyl)boronic acid]
0.01 to 0.1 µM | O=C(NCCC1(O)CCN(Cc2ccccc2)CC1)C1CCN(c2cccc(OC(F)(F)F)c2)CC1 [9-46, N-[2-(1-benzyl-4-hydroxypiperidin-4-yl)ethyl]-1-[3-(trifluoromethoxy)phenyl]piperidine-4-carboxamide]
0.1 to 1 µM | COc1ccc(N2CCC(C(=O)NCCC3CCN(Cc4ccccc4)CC3)CC2)cc1C#N [10-2, N-[2-(1-benzylpiperidin-4-yl)ethyl]-1-(3-cyano-4-methoxyphenyl)piperidine-4-carboxamide]
0.1 to 1 µM | COc1ccc(-c2cc3ncc(C(=O)NCCC4CCN(Cc5ccccc5)CC4)c(C)n3n2)cc1 [9-51, N-[2-(1-benzylpiperidin-4-yl)ethyl]-2-(4-methoxyphenyl)-7-methylpyrazolo[1,5-a]pyrimidine-6-carboxamide]
0.01 to 0.1 µM | O=C(NCCC1CCN(Cc2ccccc2)CC1)N1CCN(c2cc(F)c(F)c(F)c2)CC1 [4-74, N-[2-(1-benzylpiperidin-4-yl)ethyl]-4-(3,4,5-trifluorophenyl)piperazine-1-carboxamide]
0.01 to 0.1 µM | CC(C)CNC(=O)c1cnc(N2CCN(C(=O)NCCC3CCN(Cc4ccccc4)CC3)[C@H](C)C2)nc1 [27-12]
0.1 to 1 µM | N#Cc1cccc(N2CCN(C(=O)OCCC3CCN(Cc4ccccc4)CC3)CC2)c1 [12-2, 2-(1-benzylpiperidin-4-yl)ethyl 4-(3-cyanophenyl)piperazine-1-carboxylate]
0.01 to 0.1 µM | CN(CCNC(=O)C1CCN(c2ccc(OC(F)(F)F)cc2)CC1)[C@@H]1CCN(Cc2ccccc2)C1 [9-26, N-(2-{[(3R)-1-benzylpyrrolidin-3-yl](methyl)amino}ethyl)-1-[4-(trifluoromethoxy)phenyl]piperidine-4-carboxamide]
0.1 to 1 µM | O=C(NCCC1CCN(Cc2ccccc2)CC1)N1CCN(c2ncccc2Cl)CC1 [8-47, N-[2-(1-benzylpiperidin-4-yl)ethyl]-4-(3-chloropyridin-2-yl)piperazine-1-carboxamide]
0.01 to 0.1 µM | C[C@@H]1CN(c2ccc(C#N)cc2F)CCN1C(=O)NCCC1CCN(Cc2ccccc2)CC1 [4-43, (2R)-N-[2-(1-benzylpiperidin-4-yl)ethyl]-4-(4-cyano-2-fluorophenyl)-2-methylpiperazine-1-carboxamide]
0.1 to 1 µM | C[C@H]1CN(c2ncc(C#N)cn2)C[C@H](C)N1C(=O)NCCC1CCN(Cc2ccccc2)CC1 [26-3]

Ki | SMILES
0.1 to 1 µM | O=C(NCCC1CCN(Cc2cccc(F)c2)CC1)c1ccc(OCc2ccccc2)cc1 [11-24, 4-(benzyloxy)-N-(2-{1-[(3-fluorophenyl)methyl]piperidin-4-yl}ethyl)benzamide]
0.01 to 0.1 µM | COc1ccc(N2CCC(C(=O)NCCC3CCN(Cc4ccccc4)CC3)CC2)cc1OC(F)(F)F [10-33, N-[2-(1-benzylpiperidin-4-yl)ethyl]-1-[4-methoxy-3-(trifluoromethoxy)phenyl]piperidine-4-carboxamide]
0.1 to 1 µM | CC(C)c1noc(C2CCN(C(=O)NCCC3CCN(Cc4ccccc4)CC3)CC2)n1 [8-31, N-[2-(1-benzylpiperidin-4-yl)ethyl]-4-[3-(propan-2-yl)-1,2,4-oxadiazol-5-yl]piperidine-1-carboxamide]
0.01 to 0.1 µM | C[C@@H]1CN(c2ccc(OC(F)(F)F)c(C#N)c2)CCN1C(=O)NCCN1CCN(Cc2ccccc2)CC1 [7-3, (2R)-N-[2-(4-benzylpiperazin-1-yl)ethyl]-4-[3-cyano-4-(trifluoromethoxy)phenyl]-2-methylpiperazine-1-carboxamide]
0.01 to 0.1 µM | C[C@@H]1CN(c2ccc(F)cn2)CCN1C(=O)NCCC1CCN(Cc2ccccc2)CC1 [4-46, (2R)-N-[2-(1-benzylpiperidin-4-yl)ethyl]-4-(5-fluoropyridin-2-yl)-2-methylpiperazine-1-carboxamide]
0.01 to 0.1 µM | C[C@@H]1CN(c2cc(F)c(F)c(F)c2)CCN1C(=O)NCCC1(CO)CCN(Cc2ccccc2)CC1 [3-20, (2R)-N-{2-[1-benzyl-4-(hydroxymethyl)piperidin-4-yl]ethyl}-2-methyl-4-(3,4,5-trifluorophenyl)piperazine-1-carboxamide]
0.01 to 0.1 µM | COC1(C(=O)NCCC2CCN(Cc3ccccc3)CC2)CCN(c2cc(C(F)(F)F)ccn2)CC1 [10-47, N-[2-(1-benzylpiperidin-4-yl)ethyl]-4-methoxy-1-[4-(trifluoromethyl)pyridin-2-yl]piperidine-4-carboxamide]
0.01 to 0.1 µM | C[C@@H]1CN(c2cc(F)c(F)cc2F)C[C@H](C)N1C(=O)NCCC1CCN(Cc2ccccc2)CC1 [22-6]
0.01 to 0.1 µM | O=C(NCCC1CCN(Cc2ccccc2)CC1)N1CCC(c2ccc(Cl)cc2)CC1 [8-4, N-[2-(1-benzylpiperidin-4-yl)ethyl]-4-(4-chlorophenyl)piperidine-1-carboxamide]
0.1 to 1 µM | CS(=O)(=O)c1cccc(N2CCC(C(=O)NCCC3CCN(Cc4ccccc4)CC3)CC2)c1 [10-65, N-[2-(1-benzylpiperidin-4-yl)ethyl]-1-(3-methanesulfonylphenyl)piperidine-4-carboxamide]
0.01 to 0.1 µM | C[C@@H]1CN(c2cnc(C(F)(F)F)nc2)C[C@H](C)N1C(=O)NCCC1CCN(Cc2ccc(O)cc2)CC1 [6-54, (2R,6S)-N-(2-{1-[(4-hydroxyphenyl)methyl]piperidin-4-yl}ethyl)-2,6-dimethyl-4-[2-(trifluoromethyl)pyrimidin-5-yl]piperazine-1-carboxamide]
0.1 to 1 µM | N#Cc1cnc(N2CCN(C(=O)NCCC3CCN(Cc4ccccc4)CC3)C[C@H]2CO)nc1 [5-25, (3S)-N-[2-(1-benzylpiperidin-4-yl)ethyl]-4-(5-cyanopyrimidin-2-yl)-3-(hydroxymethyl)piperazine-1-carboxamide]
0.01 to 0.1 µM | COc1ccc(N2CCC(C(=O)NCCC3CCN(Cc4ccccc4)CC3)CC2)cc1F [10-39, N-[2-(1-benzylpiperidin-4-yl)ethyl]-1-(3-fluoro-4-methoxyphenyl)piperidine-4-carboxamide]
0.1 to 1 µM | C[C@@H]1CN(c2ncc(Br)c(Cl)n2)CCN1C(=O)NCCC1CCN(Cc2ccccc2)CC1 [5-10, (2R)-N-[2-(1-benzylpiperidin-4-yl)ethyl]-4-(5-bromo-4-chloropyrimidin-2-yl)-2-methylpiperazine-1-carboxamide]
0.1 to 1 µM | Cc1cc(Cl)c(-c2cc(C(=O)NCCC3CCN(Cc4ccccc4)CC3)ccc2Cl)cn1 [9-67, N-[2-(1-benzylpiperidin-4-yl)ethyl]-4-chloro-3-(4-chloro-6-methylpyridin-3-yl)benzamide]
0.01 to 0.1 µM | N#Cc1cccc(N2CCC(C(=O)NCCC3CCN(Cc4ccccc4)CC3)CC2)c1 [10-77, N-[2-(1-benzylpiperidin-4-yl)ethyl]-1-(3-cyanophenyl)piperidine-4-carboxamide]
0.01 to 0.1 µM | O=C(NCCC1CCN(Cc2ccc(O)cc2)CC1)C1CCN(c2ccc(OC(F)(F)F)cc2)CC1 [11-1, N-(2-{1-[(4-hydroxyphenyl)methyl]piperidin-4-yl}ethyl)-1-[4-(trifluoromethoxy)phenyl]piperidine-4-carboxamide]
0.01 to 0.1 µM | C[C@@H]1CN(c2ccc(C(F)(F)F)nc2)CCN1C(=O)NCCC1CCN(Cc2ccccc2)CC1 [4-34, (2R)-N-[2-(1-benzylpiperidin-4-yl)ethyl]-2-methyl-4-[6-(trifluoromethyl)pyridin-3-yl]piperazine-1-carboxamide]
0.1 to 1 µM | Cc1c(C(=O)NCCC2CCN(CC3CCCCC3)CC2)cnc2cc(-c3cccc(C(F)(F)F)c3)nn12 [19-3]
0.01 to 0.1 µM | COc1nc(N2CCN(C(=O)NCCC3CCN(Cc4ccccc4)CC3)[C@H](C)C2)ncc1F [4-27, (2R)-N-[2-(1-benzylpiperidin-4-yl)ethyl]-4-(5-fluoro-4-methoxypyrimidin-2-yl)-2-methylpiperazine-1-carboxamide]
